Molecular target: PIK3CG (human) (UniProt P48736)
Assay: Inhibition of PIK3CG Kinase Activity

PIK3CG (human), sequence (P48736 whole entry, looked up): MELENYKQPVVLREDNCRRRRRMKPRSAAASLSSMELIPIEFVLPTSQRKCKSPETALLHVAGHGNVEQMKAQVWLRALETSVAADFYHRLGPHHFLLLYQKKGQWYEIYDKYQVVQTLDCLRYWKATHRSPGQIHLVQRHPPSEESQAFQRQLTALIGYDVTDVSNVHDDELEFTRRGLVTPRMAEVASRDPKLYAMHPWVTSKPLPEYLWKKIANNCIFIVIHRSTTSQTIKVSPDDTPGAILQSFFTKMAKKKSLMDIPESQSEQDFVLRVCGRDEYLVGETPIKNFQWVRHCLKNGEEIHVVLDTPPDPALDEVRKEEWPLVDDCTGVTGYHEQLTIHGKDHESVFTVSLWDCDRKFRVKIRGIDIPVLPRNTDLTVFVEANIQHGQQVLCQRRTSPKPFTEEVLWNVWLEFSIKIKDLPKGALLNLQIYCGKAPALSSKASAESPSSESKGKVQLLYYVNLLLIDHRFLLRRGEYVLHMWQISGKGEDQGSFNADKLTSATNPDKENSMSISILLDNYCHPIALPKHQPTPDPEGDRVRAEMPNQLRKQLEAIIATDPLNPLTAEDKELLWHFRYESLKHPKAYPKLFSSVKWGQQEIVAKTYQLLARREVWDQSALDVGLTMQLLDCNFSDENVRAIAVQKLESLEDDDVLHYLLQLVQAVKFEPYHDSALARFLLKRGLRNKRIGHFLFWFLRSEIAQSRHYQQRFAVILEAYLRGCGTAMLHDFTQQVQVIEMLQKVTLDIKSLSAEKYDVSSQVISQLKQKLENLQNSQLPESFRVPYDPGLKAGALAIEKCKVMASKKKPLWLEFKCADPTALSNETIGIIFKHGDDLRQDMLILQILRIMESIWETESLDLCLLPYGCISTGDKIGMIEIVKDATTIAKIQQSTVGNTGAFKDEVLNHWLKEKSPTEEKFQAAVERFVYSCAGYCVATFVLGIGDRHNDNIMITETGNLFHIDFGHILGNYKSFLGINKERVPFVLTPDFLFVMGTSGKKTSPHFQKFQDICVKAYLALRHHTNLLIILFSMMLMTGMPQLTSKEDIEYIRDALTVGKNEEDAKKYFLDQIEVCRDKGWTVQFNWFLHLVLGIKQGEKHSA

Structure (SMILES) | IC50
CCCCN(Cc1ccccc1)S(=O)(=O)c1cncc(-c2ccc3nc(N)nn3c2)c1 | < 10 µM
Nc1nc2ccc(-c3ccc(S(N)(=O)=O)cc3)cn2n1 | < 10 µM
CC(C)CCNS(=O)(=O)c1cncc(-c2ccc3nc(N)nn3c2)c1 | < 10 µM
CCN(CC)S(=O)(=O)c1cncc(-c2ccc3nc(N)nn3c2)c1 | < 10 µM
Cn1cc(-c2ccc3nc(N)nn3c2)cn1 | < 10 µM
Nc1nc2ccc(-c3cncc(S(=O)(=O)N4CCC4)c3)cn2n1 | < 10 µM
Nc1nc2ccc(-c3cncc(S(=O)(=O)N4CCCC4)c3)cn2n1 | < 10 µM
CCNc1cccc(-c2ccc3nc(N)nn3c2)c1 | < 10 µM
COc1cccc(-c2ccc3nc(N)nn3c2)c1 | < 10 µM
Nc1nc2ccc(-c3cncc(S(=O)(=O)NC4CCCC4)c3)cn2n1 | < 10 µM
Nc1nc2ccc(-c3cncc(S(=O)(=O)N4CCCCC4)c3)cn2n1 | < 10 µM
COc1ccc(-c2cc(F)c3nc(N)nn3c2)cc1OC | < 10 µM
CN(C)CCCNS(=O)(=O)c1cccc(-c2ccc3nc(N)nn3c2)c1 | < 10 µM
CS(=O)(=O)c1cccc(-c2cc(F)c3nc(N)nn3c2)c1 | < 10 µM
Nc1nc2ccc(-c3cncc(S(=O)(=O)NC4CCCCC4)c3)cn2n1 | < 10 µM
CCCNS(=O)(=O)c1cncc(-c2cc(F)c3nc(N)nn3c2)c1 | < 10 µM
CC(C)(CN1CCCC1)NS(=O)(=O)c1cncc(-c2ccc3nc(N)nn3c2)c1 | < 10 µM
CN(C)C(=O)CNS(=O)(=O)c1cncc(-c2ccc3nc(N)nn3c2)c1 | < 10 µM
Nc1nc2ccc(-c3cncc(S(=O)(=O)N4CCC(F)CC4)c3)cn2n1 | < 10 µM
CN(C(C)(C)C)S(=O)(=O)c1cncc(-c2ccc3nc(N)nn3c2)c1 | < 10 µM

Structure (SMILES) | IC50
Cc1cccc(-c2ccc3nc(N)nn3c2)c1 | < 10 µM
CCCCNS(=O)(=O)c1cncc(-c2ccc3nc(N)nn3c2)c1 | < 10 µM
Nc1nc2ccc(-c3cncc(S(=O)(=O)N4CCC(F)(F)CC4)c3)cn2n1 | < 10 µM
CNS(=O)(=O)c1cncc(-c2cc(F)c3nc(N)nn3c2)c1 | < 10 µM
Nc1nc2ccc(-c3cncc(SCc4ccccc4)c3)cn2n1 | < 10 µM
CCCCNS(=O)(=O)c1cccc(-c2ccc3nc(N)nn3c2)c1 | < 10 µM
Nc1nc2ccc(-c3cccc(F)c3)cn2n1 | < 10 µM
Nc1nc2ccc(-c3cncc(S(=O)(=O)NC4CCOCC4)c3)cn2n1 | < 10 µM
CC(=O)Nc1cccc(-c2ccc3nc(N)nn3c2)c1 | < 10 µM
COc1cc(-c2ccc3nc(N)nn3c2)cc(OC)c1OC | < 10 µM
CN(C)CCN(C)S(=O)(=O)c1cccc(-c2ccc3nc(N)nn3c2)c1 | < 10 µM
Nc1nc2ccc(-c3ccccc3)cn2n1 | < 10 µM
Nc1nc2ccc(-c3cccs3)cn2n1 | < 10 µM
Nc1nc2ccc(-c3cnc(N)c(C(F)(F)F)c3)cn2n1 | < 10 µM
Nc1nc2ccc(-c3ccc4c(c3)OCO4)cn2n1 | < 10 µM
NC(=O)c1ccc(-c2ccc3nc(N)nn3c2)cc1 | < 10 µM
Nc1nc2ccc(-c3cncc(S(=O)(=O)N4CCOCC4)c3)cn2n1 | < 10 µM
Cc1nc(C)c(CNS(=O)(=O)c2cncc(-c3ccc4nc(N)nn4c3)c2)o1 | < 10 µM
COc1ccc(-c2ccc3nc(N)nn3c2)cc1OC(C)C | < 10 µM
Nc1nc2ccc(-c3cccc(S(=O)(=O)NCCCC(=O)O)c3)cn2n1 | < 10 µM

Structure (SMILES) | IC50
Nc1nc2ccc(-c3ccncc3)cn2n1 | < 10 µM
CCN(C)S(=O)(=O)c1cncc(-c2ccc3nc(N)nn3c2)c1 | < 10 µM
CCC(CC)CNS(=O)(=O)c1cncc(-c2ccc3nc(N)nn3c2)c1 | < 10 µM
CCN(C)S(=O)(=O)c1cncc(-c2cc(F)c3nc(N)nn3c2)c1 | < 10 µM
Nc1nc2ccc(-c3cn[nH]c3)cn2n1 | < 10 µM
Nc1nc2ccc(-c3cc[nH]n3)cn2n1 | < 10 µM
Nc1nc2ccc(-c3ccc(F)cc3)cn2n1 | < 10 µM
Nc1nc2ccc(-c3cncc(S(=O)(=O)NCC4CCOCC4)c3)cn2n1 | < 10 µM
CC(C)(C)COc1cncc(-c2ccc3nc(N)nn3c2)c1 | < 10 µM
Nc1nc2c(F)cc(-c3cncc(S(=O)(=O)NCC(F)(F)F)c3)cn2n1 | < 10 µM
CC(C)(C)NC(=O)c1cncc(-c2ccc3nc(N)nn3c2)c1 | < 10 µM
Nc1nc2ccc(-c3ccc4c(c3)OCCO4)cn2n1 | < 10 µM
COc1ccccc1-c1ccc2nc(N)nn2c1 | < 10 µM
COc1ccc(-c2cc(Cl)c3nc(N)nn3c2)cc1OC | < 10 µM
Nc1nc2ccc(-c3cncc(S(=O)(=O)NCC4CCCC4)c3)cn2n1 | < 10 µM
Nc1nc2ccc(-c3ccc(F)c(F)c3)cn2n1 | < 10 µM
COc1ccc(-c2cc(C)c3nc(N)nn3c2)cc1OC | < 10 µM
Nc1nc2ccc(-c3cccc(S(=O)(=O)NCCCCC(=O)O)c3)cn2n1 | < 10 µM
Nc1nc2ccc(-c3cncnc3)cn2n1 | < 10 µM
Nc1nc2ccc(-c3cncc(S(=O)(=O)NC4CCC(O)CC4)c3)cn2n1 (stereo not given) | < 10 µM

The next lines start with the values.

IC50 | Structure (SMILES)
< 10 µM | CC(C)(NS(=O)(=O)c1cncc(-c2ccc3nc(N)nn3c2)c1)c1ccccc1
< 10 µM | CN(c1cccc(C(F)(F)F)c1)S(=O)(=O)c1cncc(-c2ccc3nc(N)nn3c2)c1
< 10 µM | CC(C)(C)S(=O)(=O)c1cncc(-c2ccc3nc(N)nn3c2)c1
< 10 µM | Nc1nc2ccc(-c3cncc(S(=O)(=O)NCC(F)(F)F)c3)cn2n1
< 10 µM | CC(C)(C)NS(=O)(=O)c1cccc(-c2ccc3nc(N)nn3c2)c1
< 10 µM | CC(C)(NS(=O)(=O)c1cncc(-c2ccc3nc(N)nn3c2)c1)C(F)(F)F
< 10 µM | Nc1nc2ccc(-c3cncc(S(=O)(=O)N4CCc5ccccc5C4)c3)cn2n1
< 10 µM | CN(Cc1cccc(Cl)c1Cl)S(=O)(=O)c1cncc(-c2ccc3nc(N)nn3c2)c1
< 10 µM | Nc1nc2ccc(-c3cncc(S(=O)(=O)Nc4ccc(OC(F)F)cc4)c3)cn2n1
< 10 µM | CNS(=O)(=O)c1cncc(-c2ccc3nc(N)nn3c2)c1
< 10 µM | Nc1nc2ccc(-c3cncc(S(=O)(=O)NCC4CCC4)c3)cn2n1
< 10 µM | Nc1nc2ccc(-c3cncc(NS(=O)(=O)c4cccc(OC(F)(F)F)c4)c3)cn2n1
< 10 µM | COc1ccc(NS(=O)(=O)c2cncc(-c3ccc4nc(N)nn4c3)c2)cc1
< 10 µM | Nc1nc2ccc(-c3cncc(NS(=O)(=O)c4ccccc4C(F)(F)F)c3)cn2n1
< 10 µM | Nc1nc2ccc(-c3cncc(OCc4ccccc4)c3)cn2n1
< 10 µM | Nc1nc2ccc(-c3cccc(S(=O)(=O)NCCO)c3)cn2n1
< 10 µM | Nc1nc2ccc(-c3cncc(S(=O)(=O)Nc4cccc(F)c4F)c3)cn2n1
< 10 µM | CC1(NS(=O)(=O)c2cncc(-c3ccc4nc(N)nn4c3)c2)CCC1
< 10 µM | CC(C)CNS(=O)(=O)c1cncc(-c2ccc3nc(N)nn3c2)c1
< 10 µM | Nc1nc2ccc(-c3cncc(NS(=O)(=O)c4cc(C(F)(F)F)cc(C(F)(F)F)c4)c3)cn2n1
< 10 µM | Nc1nc2ccc(-c3cncc(S(=O)(=O)Nc4ccc(Cl)cc4)c3)cn2n1
< 10 µM | Nc1nc2ccc(-c3cncc(NS(=O)(=O)c4cccc(C(F)(F)F)c4)c3)cn2n1
< 10 µM | Nc1nc2ccc(-c3cncc(S(=O)(=O)Nc4ccc(C(F)(F)F)cc4)c3)cn2n1
< 10 µM | NCCNS(=O)(=O)c1cccc(-c2ccc3nc(N)nn3c2)c1
< 10 µM | Nc1nc2ccc(-c3cncc(S(=O)(=O)Nc4ccccc4)c3)cn2n1
< 10 µM | Nc1nc2ccc(-c3cncc(NS(=O)(=O)c4cccc5ccccc45)c3)cn2n1
< 10 µM | CC(C)NS(=O)(=O)c1cncc(-c2ccc3nc(N)nn3c2)c1
< 10 µM | Nc1nc2ccc(-c3cncc(S(=O)(=O)Nc4cccc(OC(F)(F)C(F)F)c4)c3)cn2n1

IC50 | Structure (SMILES)
< 10 µM | Nc1nc2ccc(-c3cncc(S(=O)(=O)NCc4cccc(Cl)c4Cl)c3)cn2n1
< 10 µM | Nc1nc2ccc(-c3cncc(S(=O)(=O)NCCCC(F)(F)F)c3)cn2n1
< 10 µM | Nc1nc2ccc(-c3cncc(NS(=O)(=O)Cc4ccccc4C(F)(F)F)c3)cn2n1
< 10 µM | Nc1nc2ccc(-c3cncc(S(=O)(=O)NCC4CC4)c3)cn2n1
< 10 µM | Nc1nc2ccc(-c3cncc(S(=O)(=O)NCc4ccc(Cl)c(Cl)c4)c3)cn2n1
< 10 µM | Nc1nc2ccc(-c3cncc(S(=O)(=O)Cc4ccccc4)c3)cn2n1
< 10 µM | Nc1nc2ccc(-c3cncc(S(=O)(=O)NCc4ccc(F)cc4)c3)cn2n1
< 10 µM | Nc1nc2ccc(-c3cncc(S(=O)(=O)N(Cc4ccccc4F)C4CC4)c3)cn2n1
< 10 µM | CC(C)(C)NS(=O)(=O)c1cncc(-c2ccc3nc(N)nn3c2)c1
< 10 µM | Nc1nc2ccc(-c3cncc(C(F)(F)F)c3)cn2n1
< 10 µM | Nc1nc2ccc(-c3cncc(S(=O)(=O)Nc4cc(C(F)(F)F)cc(C(F)(F)F)c4)c3)cn2n1
< 10 µM | Nc1nc2ccc(-c3cncc(S(=O)(=O)NC4CC4)c3)cn2n1
< 10 µM | Nc1nc2ccc(-c3cncc(S(=O)(=O)NCCC(F)(F)F)c3)cn2n1
< 10 µM | CS(=O)(=O)c1cccc(-c2ccc3nc(N)nn3c2)c1
< 10 µM | Nc1nc2ccc(-c3cncc(S(=O)(=O)Nc4ccc(OC(F)(F)F)cc4)c3)cn2n1
< 10 µM | CC(C)c1cccc(NS(=O)(=O)c2cncc(-c3ccc4nc(N)nn4c3)c2)c1
< 10 µM | Nc1nc2ccc(-c3cncc(S(=O)(=O)Nc4ccccc4C(F)(F)F)c3)cn2n1
< 10 µM | CS(=O)(=O)c1cncc(-c2ccc3nc(N)nn3c2)c1
< 10 µM | CN(C)S(=O)(=O)c1cncc(-c2ccc3nc(N)nn3c2)c1
< 10 µM | Nc1nc2ccc(-c3cncc(S(=O)(=O)Nc4ccc(F)cc4F)c3)cn2n1
< 10 µM | NCCNS(=O)(=O)c1cncc(-c2ccc3nc(N)nn3c2)c1
< 10 µM | Nc1nc2ccc(-c3cncc(S(=O)(=O)Nc4cc(F)cc(F)c4)c3)cn2n1
< 10 µM | Nc1nc2ccc(-c3cncc(S(=O)(=O)Nc4cccc(OC(F)F)c4)c3)cn2n1
< 10 µM | CCCNS(=O)(=O)c1cncc(-c2ccc3nc(N)nn3c2)c1
< 10 µM | Nc1nc2ccc(-c3cncc(NS(=O)(=O)c4ccc5ccccc5c4)c3)cn2n1
< 10 µM | CC(C)c1ccc(NS(=O)(=O)c2cncc(-c3ccc4nc(N)nn4c3)c2)cc1
< 10 µM | Nc1nc2ccc(-c3cncc(S(N)(=O)=O)c3)cn2n1
